# Reference: patent US10168342B2, “Lipid probes and uses thereof” (THE SCRIPPS RESEARCH INSTITUTE, priority 2015, dated 2019)
# Like-named read-outs stand apart in the source and are kept apart here.
# How the values were obtained:
# [1] = molecular target: T1, AEA-DA lipid probe targets in Neuro2a cells (Mus musculus, UniProt Q61207); conditions: for SILAC ratio, PSAP (P07602): Neuro2a cells, AEA-DA probe
# T1 sequence (Q61207 60-557): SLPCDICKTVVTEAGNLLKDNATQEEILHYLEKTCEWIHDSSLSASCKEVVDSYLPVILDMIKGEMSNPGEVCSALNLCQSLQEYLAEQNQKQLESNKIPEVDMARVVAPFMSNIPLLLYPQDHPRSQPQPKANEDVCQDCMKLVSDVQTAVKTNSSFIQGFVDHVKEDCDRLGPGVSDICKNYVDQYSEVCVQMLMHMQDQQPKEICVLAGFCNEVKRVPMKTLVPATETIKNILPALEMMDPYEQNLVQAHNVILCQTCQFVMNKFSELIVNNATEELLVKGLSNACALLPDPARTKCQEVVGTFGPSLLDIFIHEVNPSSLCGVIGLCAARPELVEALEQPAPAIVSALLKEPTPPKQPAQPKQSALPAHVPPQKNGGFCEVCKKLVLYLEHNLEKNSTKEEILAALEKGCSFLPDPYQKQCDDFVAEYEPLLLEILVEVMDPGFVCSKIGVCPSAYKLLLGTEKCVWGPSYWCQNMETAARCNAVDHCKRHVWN
# [2] = molecular target: T2, AEA-DA lipid probe targets in Neuro2a cells (Mus musculus, UniProt Q9JMF7)
# T2 sequence (Q9JMF7 1-238): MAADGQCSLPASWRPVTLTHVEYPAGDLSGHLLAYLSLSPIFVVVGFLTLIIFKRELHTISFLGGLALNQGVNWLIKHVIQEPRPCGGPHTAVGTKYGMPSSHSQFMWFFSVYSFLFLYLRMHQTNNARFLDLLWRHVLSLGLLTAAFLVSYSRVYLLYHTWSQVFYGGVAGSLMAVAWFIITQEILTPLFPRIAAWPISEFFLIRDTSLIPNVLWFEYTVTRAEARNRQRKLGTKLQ
# [3] = molecular target: T3, AEA-DA lipid probe targets in Neuro2a cells (Mus musculus, UniProt Q9CQ85); conditions: for SILAC ratio, TIMM22 (Q9CQ85): Neuro2a cells, AEA-DA probe
# T3 sequence (Q9CQ85 1-194): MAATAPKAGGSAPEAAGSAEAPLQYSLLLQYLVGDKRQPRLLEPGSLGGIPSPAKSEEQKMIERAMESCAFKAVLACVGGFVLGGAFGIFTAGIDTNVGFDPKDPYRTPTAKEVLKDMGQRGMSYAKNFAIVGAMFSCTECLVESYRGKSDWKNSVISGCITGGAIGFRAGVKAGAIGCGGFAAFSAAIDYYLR
# [4] = molecular target: AEA-DA lipid probe targets in Neuro2a cells (Mus musculus, UniProt Q60864)
# [5] = molecular target: T4, AEA-DA lipid probe targets in Neuro2a cells (Mus musculus, UniProt Q61035)
# T4 sequence (Q61035 1-509): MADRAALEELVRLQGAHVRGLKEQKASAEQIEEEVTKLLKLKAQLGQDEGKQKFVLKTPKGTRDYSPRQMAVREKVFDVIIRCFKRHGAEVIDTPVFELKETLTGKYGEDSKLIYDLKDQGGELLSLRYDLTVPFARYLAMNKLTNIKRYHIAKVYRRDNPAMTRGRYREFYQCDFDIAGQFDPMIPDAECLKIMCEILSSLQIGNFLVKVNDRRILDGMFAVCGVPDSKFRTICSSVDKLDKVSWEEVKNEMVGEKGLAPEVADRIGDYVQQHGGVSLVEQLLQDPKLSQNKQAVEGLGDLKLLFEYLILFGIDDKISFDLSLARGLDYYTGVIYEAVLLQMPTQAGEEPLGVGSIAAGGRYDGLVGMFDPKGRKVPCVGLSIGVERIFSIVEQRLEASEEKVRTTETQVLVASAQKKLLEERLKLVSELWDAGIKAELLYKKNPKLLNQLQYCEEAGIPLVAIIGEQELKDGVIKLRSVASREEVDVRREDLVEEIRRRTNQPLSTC
# [6] = molecular target: T5, AEA-DA lipid probe targets in Neuro2a cells (Mus musculus, UniProt Q9R1J0); conditions: for SILAC ratio, NSDHL (Q15738): Neuro2a cells, AEA-DA probe
# T5 sequence (Q9R1J0 1-362): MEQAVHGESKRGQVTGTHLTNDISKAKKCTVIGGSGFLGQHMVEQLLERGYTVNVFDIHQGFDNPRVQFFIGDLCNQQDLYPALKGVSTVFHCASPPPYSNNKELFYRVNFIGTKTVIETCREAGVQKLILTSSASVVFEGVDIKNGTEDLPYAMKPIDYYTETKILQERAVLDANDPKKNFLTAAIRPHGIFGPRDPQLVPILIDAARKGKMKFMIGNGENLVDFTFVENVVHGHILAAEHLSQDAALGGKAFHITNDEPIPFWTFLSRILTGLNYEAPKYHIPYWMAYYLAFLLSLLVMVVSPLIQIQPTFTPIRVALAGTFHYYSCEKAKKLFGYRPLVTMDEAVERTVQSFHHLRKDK
# [7] = molecular target: AEA-DA lipid probe targets in Neuro2a cells (Mus musculus, UniProt G5E895); conditions: competitor 25 μM
# [8] = molecular target: T6, AEA-DA lipid probe targets in Neuro2a cells (Mus musculus, UniProt Q505D7); conditions: for SILAC ratio, OPA3 (Q505D7): Neuro2a cells, AEA-DA probe
# T6 sequence (Q505D7 1-179): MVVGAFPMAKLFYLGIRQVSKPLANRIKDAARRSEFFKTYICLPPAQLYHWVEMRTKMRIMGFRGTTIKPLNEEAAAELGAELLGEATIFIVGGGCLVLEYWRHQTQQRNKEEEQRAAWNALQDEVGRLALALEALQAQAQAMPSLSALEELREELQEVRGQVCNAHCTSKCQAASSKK
# Sequence of AEA-DA lipid probe targets in Neuro2a cells (Mus musculus, UniProt G5E895) (G5E895 1-316): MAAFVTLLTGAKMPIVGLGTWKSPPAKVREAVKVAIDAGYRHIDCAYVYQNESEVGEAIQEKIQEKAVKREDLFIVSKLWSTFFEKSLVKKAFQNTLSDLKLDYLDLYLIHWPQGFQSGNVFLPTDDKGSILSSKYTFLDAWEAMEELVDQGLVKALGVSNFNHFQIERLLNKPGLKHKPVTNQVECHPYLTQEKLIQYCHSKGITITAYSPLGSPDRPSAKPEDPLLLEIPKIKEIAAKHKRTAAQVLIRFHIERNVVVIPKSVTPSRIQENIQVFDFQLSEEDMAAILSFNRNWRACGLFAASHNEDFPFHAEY
smiles,measurement,setting,value
"CCCCC/C=C\C/C=C\C/C=C\C/C=C\CCCC(=O)NCCO [AEA, anandamide, reference compound]","SILAC ratio, PSAP (P07602)",[1]; competitor 200 μM,1.4
same,SILAC ratio Psap,[1]; competitor 200 μM,1.4
same,"SILAC ratio, Dolpp1",[2]; competitor 200 μM,2.2
same,"SILAC ratio, TIMM22 (Q9CQ85)",[3]; competitor 200 μM,1.3
same,"SILAC ratio, Timm22",[3]; competitor 200 μM,1.3
same,SILAC ratio Stip1,[4]; competitor 200 μM,1.3
same,SILAC ratio Hars,[5]; competitor 200 μM,1.2
same,"SILAC ratio, NSDHL (Q15738)",[6]; competitor 200 μM,2.0
same,"SILAC ratio, Nsdhl",[6]; competitor 200 μM,2.0
"O=C(/C=C/c1cccnc1)NCCCCC1CCN(C(=O)c2ccccc2)CC1 [FK-866, reference compound]","SILAC ratio, Akr1b10",[7],1.9
same,"SILAC ratio, PSAP (P07602)",[1]; competitor 25 μM,1.0
same,SILAC ratio Psap,[1]; competitor 25 μM,1.0
same,"SILAC ratio, OPA3 (Q505D7)",[8]; competitor 25 μM,1.1
same,"SILAC ratio, Opa3",[8]; competitor 25 μM,1.1
same,"SILAC ratio, Dolpp1",[2]; competitor 25 μM,1.2
same,"SILAC ratio, TIMM22 (Q9CQ85)",[3]; competitor 25 μM,1.2
same,"SILAC ratio, Timm22",[3]; competitor 25 μM,1.2
same,SILAC ratio Stip1,[4]; competitor 25 μM,1.3
same,SILAC ratio Hars,[5]; competitor 25 μM,1.3
same,"SILAC ratio, NSDHL (Q15738)",[6]; competitor 25 μM,1.3
same,"SILAC ratio, Nsdhl",[6]; competitor 25 μM,1.3
"CN1CCN(C(=O)c2c(-c3ccccc3)c3cc([N+](=O)[O-])ccc3n2C)CC1 [KML110, (1-Methyl-5-nitro-3-phenyl-1H-indol-2-yl)(4-methylpiperazin-1-yl)methanone]","SILAC ratio, Akr1b10",[7],3.9
same,SILAC ratio Psap,[1]; competitor 25 μM,1.3
same,"SILAC ratio, Opa3",[8]; competitor 25 μM,1.6
same,"SILAC ratio, Dolpp1",[2]; competitor 25 μM,1.6
same,"SILAC ratio, Timm22",[3]; competitor 25 μM,1.4
same,SILAC ratio Stip1,[4]; competitor 25 μM,1.6
same,SILAC ratio Hars,[5]; competitor 25 μM,1.5
same,"SILAC ratio, Nsdhl",[6]; competitor 25 μM,1.7
"CN1CCN(C(=O)c2[nH]c3ccc([N+](=O)[O-])cc3c2-c2ccccc2)CC1 [MJN228, (4-Methylpiperazin-1-yl)(5-nitro-3-phenyl-1H-indol-2-yl)methanone]","SILAC ratio, Akr1b10",[7],2.8
same,"SILAC ratio, PSAP (P07602)",[1]; competitor 25 μM,1.4
same,SILAC ratio Psap,[1]; competitor 10 μM,1.1
same,SILAC ratio Psap,[1]; competitor 25 μM,1.4
same,SILAC ratio Psap,[1]; competitor 50 μM,1.4
same,SILAC ratio Psap,[1]; competitor 100 μM,1.6
same,"SILAC ratio, OPA3 (Q505D7)",[8]; competitor 25 μM,1.4
same,"SILAC ratio, Opa3",[8]; competitor 10 μM,1.4
same,"SILAC ratio, Opa3",[8]; competitor 25 μM,1.4
same,"SILAC ratio, Opa3",[8]; competitor 50 μM,1.5
same,"SILAC ratio, Opa3",[8]; competitor 100 μM,1.9
same,"SILAC ratio, Dolpp1",[2]; competitor 10 μM,1.2
same,"SILAC ratio, Dolpp1",[2]; competitor 25 μM,1.6
same,"SILAC ratio, Dolpp1",[2]; competitor 50 μM,1.9
same,"SILAC ratio, Dolpp1",[2]; competitor 100 μM,3.3
same,"SILAC ratio, TIMM22 (Q9CQ85)",[3]; competitor 25 μM,1.3
same,"SILAC ratio, Timm22",[3]; competitor 10 μM,1.0
same,"SILAC ratio, Timm22",[3]; competitor 25 μM,1.3
same,"SILAC ratio, Timm22",[3]; competitor 50 μM,1.0
same,"SILAC ratio, Timm22",[3]; competitor 100 μM,1.8
same,SILAC ratio Stip1,[4]; competitor 10 μM,1.2
same,SILAC ratio Stip1,[4]; competitor 25 μM,1.3
same,SILAC ratio Stip1,[4]; competitor 50 μM,1.2
same,SILAC ratio Stip1,[4]; competitor 100 μM,1.9
same,SILAC ratio Hars,[5]; competitor 10 μM,1.6
same,SILAC ratio Hars,[5]; competitor 25 μM,1.5
same,SILAC ratio Hars,[5]; competitor 50 μM,1.0
same,SILAC ratio Hars,[5]; competitor 100 μM,1.4
same,"SILAC ratio, NSDHL (Q15738)",[6]; competitor 25 μM,2.3
same,"SILAC ratio, Nsdhl",[6]; competitor 10 μM,1.7
same,"SILAC ratio, Nsdhl",[6]; competitor 25 μM,2.3
same,"SILAC ratio, Nsdhl",[6]; competitor 50 μM,3.0
same,"SILAC ratio, Nsdhl",[6]; competitor 100 μM,4.0
"C=CCN(C)CCCCCCOc1ccc(C(=O)c2ccc(Br)cc2)c(F)c1 [Ro 48-8071, reference compound]","SILAC ratio, Akr1b10",[7],1.5
same,"SILAC ratio, PSAP (P07602)",[1]; competitor 25 μM,1.0
same,SILAC ratio Psap,[1]; competitor 25 μM,1.0
same,"SILAC ratio, OPA3 (Q505D7)",[8]; competitor 25 μM,1.4
same,"SILAC ratio, Opa3",[8]; competitor 25 μM,1.4
same,"SILAC ratio, Dolpp1",[2]; competitor 25 μM,1.3
same,"SILAC ratio, TIMM22 (Q9CQ85)",[3]; competitor 25 μM,1.1
same,"SILAC ratio, Timm22",[3]; competitor 25 μM,1.1
same,SILAC ratio Stip1,[4]; competitor 25 μM,1.0
same,SILAC ratio Hars,[5]; competitor 25 μM,0.9
same,"SILAC ratio, NSDHL (Q15738)",[6]; competitor 25 μM,1.3
same,"SILAC ratio, Nsdhl",[6]; competitor 25 μM,1.3
